Series [1] deals with bulrush. Description: Test Example 2: herbicidal efficacy on rice paddy weeds post-emergence. It counts as in vivo, Scirpus juncoides. The conditions noted are these: post-emergence, one leaf stage, 21 days after treatment.
In series [2] the test system is false pimpernel. Description: Test Example 1: herbicidal efficacy on rice paddy weeds pre-emergence. It counts as in vivo, Lindernia pyxidaria. The conditions noted are these: 21 days.
In the next series the test system is barnyard glass. Description: Test Example 2: herbicidal efficacy on rice paddy weeds post-emergence. It counts as in vivo, Echinochloa crus-galli. To be noted: post-emergence, one leaf stage, 21 days after treatment. Put shortly:
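Plastic pots of 75 cm^2 were filled with clay loam soil and sown with barnyard glass and bulrush seeds, then topped with 75 cm^3 soil containing false pimpernel seeds. The pots were flooded to 5 cm water depth and held in a hot house. Twenty-one days after treatment, herbicidal efficacy was graded against an untreated control.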

The test system of series [3] is false pimpernel. The series is described as above. It counts as in vivo, Lindernia pyxidaria. To be noted: post-emergence, one leaf stage, 21 days after treatment.
Series [4] relates to bulrush. Description: Test Example 1: herbicidal efficacy on rice paddy weeds pre-emergence. It counts as in vivo, Scirpus juncoides. To be noted: 21 days.
The test system of series [5] is paddy rice plant (cultivar: Nihonbare). Description: Test Example 3: phytotoxicity test for transplanted paddy rice plant. It counts as in vivo. To be noted: transplanted rice, 21 days after treatment. A digest of the protocol: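 Clay loam soil was placed in a 75 cm^2 plastic pot and flooded to a water depth of 5 cm. Two Nihonbare paddy rice plants at the two-leaf stage were transplanted 1 cm deep and grown in a hot house. After treatment, pots stayed in the hot house for 21 days, and phytotoxicity was then graded against an untreated control.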

[6] abbreviates: dosage 1000 g/ha, treated 5 days after transplantation.

Regarding `CC(C)COC(=O)N(c1ccccc1CN1CC(CNC(=O)OC(C)(C)C)OC1=O)S(=O)(=O)C(F)(F)F` (racemic) [Compound 1-107], the “Bulrush post (herbicidal efficacy grade)” value in the series with bulrush [1] (dosage 300 g/ha) was 4 (90%-100% of herbicidal efficacy or phytotoxicity). In the series on false pimpernel [2] (dosage 300 g/ha), the “False pimpernel pre (herbicidal efficacy grade)” value (“False pimpernel pre” below) was 4 (90%-100% of herbicidal efficacy or phytotoxicity). Further, the “Burnyard grass post (herbicidal efficacy grade)” value (“Burnyard grass post” below) in the series on barnyard glass (dosage 300 g/ha) is given as 3 (70%-89% of herbicidal efficacy or phytotoxicity). For the same compound, the “False pimpernel post (herbicidal efficacy grade)” value (“False pimpernel post” below) with false pimpernel [3] (dosage 300 g/ha) is given as 1 (1%-39% of herbicidal efficacy or phytotoxicity). For the same compound, the “Bulrush pre (herbicidal efficacy grade)” value with bulrush [4] (dosage 300 g/ha) was 4 (90%-100% of herbicidal efficacy or phytotoxicity). Besides, the “Phytotoxicity to paddy rice” value in series [5] (dosage 300 g/ha) is 0 (0% of herbicidal efficacy or phytotoxicity).

Regarding `CCCC1CN(Cc2ccccc2NS(=O)(=O)C(F)(F)F)C(=O)O1` (stereo not drawn) [Compound 1-29], in the series on bulrush [1] (dosage 1000 g/ha), the “Bulrush post (herbicidal efficacy grade)” value was 4 (90%-100% of herbicidal efficacy or phytotoxicity). Moreover, the “False pimpernel pre” value in the series on false pimpernel [2] (dosage 1000 g/ha) is reported as 4 (90%-100% of herbicidal efficacy or phytotoxicity). Moreover, the “Burnyard grass post” value with barnyard glass (dosage 1000 g/ha) is listed as 4 (90%-100% of herbicidal efficacy or phytotoxicity). For the same compound, the “False pimpernel post” value in the series on false pimpernel [3] (dosage 1000 g/ha) is reported as 4 (90%-100% of herbicidal efficacy or phytotoxicity). For the same compound, the “Bulrush pre (herbicidal efficacy grade)” value in the series on bulrush [4] (dosage 1000 g/ha) is on record as 4 (90%-100% of herbicidal efficacy or phytotoxicity). In addition, the “Phytotoxicity to paddy rice” value in series [5] (setting [6]) is 2 (40%-69% of herbicidal efficacy or phytotoxicity).

In the case of `CCCC1CN(Cc2ccccc2N(C(=O)OCC(C)C)S(=O)(=O)C(F)(F)F)C(=O)O1` (stereo not drawn) [Compound 1-30], the “Bulrush post (herbicidal efficacy grade)” value in the series with bulrush [1] (dosage 1000 g/ha) is reported as 4 (90%-100% of herbicidal efficacy or phytotoxicity). The “False pimpernel pre” value with false pimpernel [2] (dosage 1000 g/ha) is listed as 4 (90%-100% of herbicidal efficacy or phytotoxicity). Besides, the “Burnyard grass post” value in the series on barnyard glass (dosage 1000 g/ha) was 4 (90%-100% of herbicidal efficacy or phytotoxicity). The “False pimpernel post” value with false pimpernel [3] (dosage 1000 g/ha) is 4 (90%-100% of herbicidal efficacy or phytotoxicity). The “Bulrush pre (herbicidal efficacy grade)” value in the series on bulrush [4] (dosage 1000 g/ha) is on record as 4 (90%-100% of herbicidal efficacy or phytotoxicity). Moreover, the “Phytotoxicity to paddy rice” value in series [5] (setting [6]) was 0 (0% of herbicidal efficacy or phytotoxicity).

With `CC(C)COC(=O)N(c1ccccc1CN1CC(C)(COc2ccccc2)OC1=O)S(=O)(=O)C(F)(F)F` (stereo not drawn) [Compound 1-158], in the series with bulrush [1] (dosage 1000 g/ha), the “Bulrush post (herbicidal efficacy grade)” value was 4 (90%-100% of herbicidal efficacy or phytotoxicity). The “False pimpernel pre” value in the series on false pimpernel [2] (dosage 1000 g/ha) was 4 (90%-100% of herbicidal efficacy or phytotoxicity). Moreover, the “Burnyard grass post” value in the series on barnyard glass (dosage 1000 g/ha) is 4 (90%-100% of herbicidal efficacy or phytotoxicity). Also, the “False pimpernel post” value in the series on false pimpernel [3] (dosage 1000 g/ha) was 4 (90%-100% of herbicidal efficacy or phytotoxicity). In the series with bulrush [4] (dosage 1000 g/ha), the “Bulrush pre (herbicidal efficacy grade)” value is 4 (90%-100% of herbicidal efficacy or phytotoxicity). Further, in series [5] (setting [6]), the “Phytotoxicity to paddy rice” value was 1 (1%-39% of herbicidal efficacy or phytotoxicity).

Turning to `CCCCC1COC(=O)N1Cc1ccccc1NS(=O)(=O)C(F)(F)F` (stereo not drawn) [Compound 1-11], in the series with bulrush [1] (dosage 300 g/ha), the “Bulrush post (herbicidal efficacy grade)” value is recorded as 3 (70%-89% of herbicidal efficacy or phytotoxicity). Further, the “False pimpernel pre” value with false pimpernel [2] (dosage 300 g/ha) is given as 2 (40%-69% of herbicidal efficacy or phytotoxicity). Moreover, the “Burnyard grass post” value in the series on barnyard glass (dosage 300 g/ha) was 0 (0% of herbicidal efficacy or phytotoxicity). For the same compound, in the series on false pimpernel [3] (dosage 300 g/ha), the “False pimpernel post” value is on record as 1 (1%-39% of herbicidal efficacy or phytotoxicity). In addition, the “Bulrush pre (herbicidal efficacy grade)” value with bulrush [4] (dosage 300 g/ha) is 4 (90%-100% of herbicidal efficacy or phytotoxicity). Moreover, in series [5] (dosage 300 g/ha), the “Phytotoxicity to paddy rice” value is on record as 0 (0% of herbicidal efficacy or phytotoxicity).

Regarding `Cc1c(Cl)ccc(OC(C)C(=O)N(c2ccccc2CN2CC(C)(C)OC2=O)S(=O)(=O)C(F)(F)F)c1Cl` (stereo not drawn) [Compound 1-139], the “Bulrush post (herbicidal efficacy grade)” value in the series on bulrush [1] (dosage 300 g/ha) is 4 (90%-100% of herbicidal efficacy or phytotoxicity). Moreover, the “False pimpernel pre” value in the series on false pimpernel [2] (dosage 300 g/ha) is on record as 4 (90%-100% of herbicidal efficacy or phytotoxicity). Besides, in the series with barnyard glass (dosage 300 g/ha), the “Burnyard grass post” value was 3 (70%-89% of herbicidal efficacy or phytotoxicity). Moreover, the “False pimpernel post” value in the series on false pimpernel [3] (dosage 300 g/ha) is 4 (90%-100% of herbicidal efficacy or phytotoxicity). The “Bulrush pre (herbicidal efficacy grade)” value in the series on bulrush [4] (dosage 300 g/ha) is 4 (90%-100% of herbicidal efficacy or phytotoxicity). The “Phytotoxicity to paddy rice” value in series [5] (dosage 300 g/ha) is reported as 3 (70%-89% of herbicidal efficacy or phytotoxicity).

In the case of `CCCCC1(C)CN(Cc2ccccc2N(C(=O)OCC(C)C)S(=O)(=O)C(F)(F)F)C(=O)O1` (racemic) [Compound 1-123], the “Bulrush post (herbicidal efficacy grade)” value with bulrush [1] (dosage 1000 g/ha) is 4 (90%-100% of herbicidal efficacy or phytotoxicity). In addition, the “False pimpernel pre” value with false pimpernel [2] (dosage 1000 g/ha) is on record as 4 (90%-100% of herbicidal efficacy or phytotoxicity). Also, the “Burnyard grass post” value in the series on barnyard glass (dosage 1000 g/ha) was 4 (90%-100% of herbicidal efficacy or phytotoxicity). In addition, the “False pimpernel post” value with false pimpernel [3] (dosage 1000 g/ha) is 4 (90%-100% of herbicidal efficacy or phytotoxicity). Besides, in the series on bulrush [4] (dosage 1000 g/ha), the “Bulrush pre (herbicidal efficacy grade)” value is recorded as 4 (90%-100% of herbicidal efficacy or phytotoxicity). Besides, the “Phytotoxicity to paddy rice” value in series [5] (setting [6]) was 1 (1%-39% of herbicidal efficacy or phytotoxicity).

For `COC(=O)N(c1ccccc1CN1CC(C)(COCc2ccccc2)OC1=O)S(=O)(=O)C(F)(F)F` (stereo not drawn) [Compound 1-175], the “Bulrush post (herbicidal efficacy grade)” value with bulrush [1] (dosage 1000 g/ha) is reported as 4 (90%-100% of herbicidal efficacy or phytotoxicity). In the series on false pimpernel [2] (dosage 1000 g/ha), the “False pimpernel pre” value is 4 (90%-100% of herbicidal efficacy or phytotoxicity). Besides, in the series on barnyard glass (dosage 1000 g/ha), the “Burnyard grass post” value is 4 (90%-100% of herbicidal efficacy or phytotoxicity). In addition, the “False pimpernel post” value with false pimpernel [3] (dosage 1000 g/ha) is given as 4 (90%-100% of herbicidal efficacy or phytotoxicity). In addition, the “Bulrush pre (herbicidal efficacy grade)” value in the series with bulrush [4] (dosage 1000 g/ha) was 4 (90%-100% of herbicidal efficacy or phytotoxicity). For the same compound, the “Phytotoxicity to paddy rice” value in series [5] (setting [6]) was 1 (1%-39% of herbicidal efficacy or phytotoxicity).

For `CC1(C)OC(=O)N(Cc2ccccc2NS(=O)(=O)C(F)(F)F)C1(C)C` [Compound 1-73], in the series on bulrush [1] (dosage 1000 g/ha), the “Bulrush post (herbicidal efficacy grade)” value is 4 (90%-100% of herbicidal efficacy or phytotoxicity). Besides, the “False pimpernel pre” value in the series with false pimpernel [2] (dosage 1000 g/ha) is listed as 4 (90%-100% of herbicidal efficacy or phytotoxicity). Also, the “Burnyard grass post” value in the series with barnyard glass (dosage 1000 g/ha) is recorded as 4 (90%-100% of herbicidal efficacy or phytotoxicity). In the series with false pimpernel [3] (dosage 1000 g/ha), the “False pimpernel post” value was 4 (90%-100% of herbicidal efficacy or phytotoxicity). Also, the “Bulrush pre (herbicidal efficacy grade)” value in the series with bulrush [4] (dosage 1000 g/ha) is on record as 4 (90%-100% of herbicidal efficacy or phytotoxicity). The “Phytotoxicity to paddy rice” value in series [5] (setting [6]) is 4 (90%-100% of herbicidal efficacy or phytotoxicity).

`O=C1OC(C(F)(F)F)CN1Cc1ccccc1NS(=O)(=O)C(F)(F)F` (stereo not drawn) [Compound 1-19]: the “Bulrush post (herbicidal efficacy grade)” value in the series on bulrush [1] (dosage 300 g/ha) is recorded as 4 (90%-100% of herbicidal efficacy or phytotoxicity). Moreover, in the series with false pimpernel [2] (dosage 300 g/ha), the “False pimpernel pre” value is reported as 3 (70%-89% of herbicidal efficacy or phytotoxicity). Besides, the “Burnyard grass post” value in the series with barnyard glass (dosage 300 g/ha) is 2 (40%-69% of herbicidal efficacy or phytotoxicity). In addition, the “False pimpernel post” value in the series with false pimpernel [3] (dosage 300 g/ha) is listed as 2 (40%-69% of herbicidal efficacy or phytotoxicity). Besides, the “Bulrush pre (herbicidal efficacy grade)” value in the series on bulrush [4] (dosage 300 g/ha) is recorded as 4 (90%-100% of herbicidal efficacy or phytotoxicity). In series [5] (dosage 300 g/ha), the “Phytotoxicity to paddy rice” value is 0 (0% of herbicidal efficacy or phytotoxicity).

For the origin of these results see patent US20080274892A1, “Novel Haloalkylsulfonanilide Derivative, Herbicide, and Method of Use Thereof” (priority 2005, published 2008).
